From patent US20240358671A1, “COMPOSITIONS AND METHODS TO TREAT SKIN DISORDERS” (THE TRUSTEES OF INDIANA UNIVERSITY, priority 2021, published 2024)
Entries after “also recorded” stand apart in the source; their conditions may differ.

Tests used:
PPARδ [1] = experiment: PPARδ trans-activity assay; format: cell-based; details: human keratinocytes; 5 μmol long chain ceramides, 48 h
Description: Human keratinocytes cells were treated with 5 μmol of long chain ceramides, C18:0 and C24:0 (Avanti Polar Lipids Inc., Alabama) using Lipofectamine LTX (Thermo Fisher Scientific). Cells were collected 48 h post transfection and nuclear protein was extracted using Nuclear Extraction Kit (RayBiotech) as per manufacturer's protocol. PPARδ trans-activity was measured using PPAR delta Transcription Factor Assay Kit (abcam) as per manufacturer's instructions.

PPARδ promoter = PPARδ promoter assay; format: cell-based; details: human keratinocytes; PPARδ promoter reporter; 5 μmol long chain ceramides, 48 h
Description: PPARδ promoter assay was done as described previously. mNP-Luc (PPARdelta promoter) was a gift (Addgene plasmid #16532; http://n2t.net/addgene:16532; RRID:Addgene_16532. Human keratinocytes cells were co-transfected with the PPARδ promoter reporter construct and treated with 5 μmol of long chain ceramides, C:18 and C:24 (Avanti Polar Lipids Inc., Alabama) using Lipofectamine™ LTX Reagent with PLUS™ Reagent (Thermo Fisher Scientific). Media were collected 48 h post transfection and the secreted GLuc and SEAP activities were measured with the Secrete-Pair Dual Luminescence Assay Kit (GeneCopoeia) according to the manufacturer's protocol using the Berthold Luminometer (Berthold Technologies). Normalized promoter activity has been presented as the ratio of GLuc to SEAP activities.

Human keratinocytes (HK) = experiment: Human keratinocytes-Pseudomonas biofilm co-culture conditioned media: keratinocyte ceramide by anti-ceramide immunostaining; format: cell-based; details: HK treated with conditioned media (25% v/v) of cells co-cultured with PA biofilm containing ceramidastin 10 μg/ml, 24 h
Description: FIGS. 7A-7U relate to ceramide depletion and ceramidastin rescue. FIGS. 7A-7S: Ceramide depletion, as measured by LC-MS/MS, in cutaneous lipids. Following exposure to bacteria as applicable, lipids were extracted and analyzed via a targeted approach. Data thus obtained were subjected to analysis by ANOVA using R3.5.3 to specifically identify those lipids with significant differences between the three groups. Those with significance as tested by ANOVA were subjected to post hoc analysis using Tukey-HSD with a FDR cutoff of 0.05. Lipids with group differences that passed these thresholds were illustrated as box plots. Skin ceramides have been denoted using the standard nomenclature following the format of fatty acyl type, sphingoid backbone type, and sphingoid backbone length-fatty acyl length. […]
(§1) OCT embedded wound tissue blocks were sectioned using a cryostat. […] To enable fluorescence detection, sections were incubated with appropriate Alexa Fluor® 488 (green, Molecular probes), Alexa Fluor® […] (red, Molecular probes) conjugated secondary antibodies. […] Mosaic images were collected using collected using a Zeiss Axiovert 200 M, inverted fluorescence microscopy or confocal microscopy (LSM880). Image analysis was performed using Zen (Zeiss) software to quantitate fluorescence intensity (fluorescent pixels).

PA bcdase = biological target: T1, PA bcdase (Pseudomonas aeruginosa, UniProt Q9I596); experiment: Ex vivo extracted skin lipids treated with biofilm-conditioned media, ceramides by LC-MS/MS; format: biochemical; details: conditioned media contained ceramidastin
T1 construct: cutaneous lipids exposed to biofilm-infected keratinocyte conditioned media (CM); endogenous in cells; host or cells: Wild-type Pseudomonas aeruginosa (PAwt) biofilm co-cultured with human keratinocytes; the conditioned medium holds the enzyme
Description: FIGS. 8A-8N illustrate ceramide depletion. FIGS. 8A-8L Ceramide depletion, as measured by LC-MS/MS, in cutaneous lipids exposed to biofilm-infected keratinocyte conditioned media (CM). As indicated, to test the significance of PA bcdase, the CM contained ceramidastin (CST). Lipids were extracted and analyzed using an untargeted approach as described in Materials and Methods. The resultant data were analyzed using R 3.3. Wilcoxon Rank-Sum test was used for all group analyses and Kruskal-Wallis followed by Benjamini Hochberg correction was performed for multiple comparisons with significance at p<0.05. Skin ceramides have been denoted using the standard nomenclature following the format of fatty acyl type, sphingoid backbone type, and sphingoid backbone length-fatty acyl length. NS=Cer 2 (with non-hydroxy fatty acid, sphingoid backbone); NP=Cer 3 (non-hydroxy fatty acid, phytopshingoid backbone); NH=Cer 8 (non-hydroxy fatty acid, 6-hydroxy sphingoid backbone); NDS=Cer 10 (non-hydroxy fatty acid, dihydroxy sphingoid backbone); AS=Cer 5 (α-hydroxy fatty acid, sphingoid backbone); AP=Cer 6 (α-hydroxy fatty acid, phytosphingoid backbone). The Y-axis values are in mol %. (M) Digital wound images and planimetry shown. […]
Untargeted lipidomics was undertaken as previously published. […] Finally, lipids were analyzed via the use of MS/MSALL approach as previously disclosed. […]

PPARδ [2] = experiment: PPARδ expression in human keratinocyte biofilm infection; format: cell-based; details: in the presence of ceramidastin
Description: (§2) Bacterial biofilms were co-cultured with human keratinocytes cells following the method adapted from Anderson. The confluent cultures of human keratinocytes cells were inoculated with bacterial cultures of PAwt or PAΔcer (10^5 CFU/ml) in antibiotic free culture media. The plates were incubated for 1 h at 37° C. and 5% CO2. Post 1 h, fresh DMEM (without antibiotics) supplemented with 0.4% arginine was added to the plate. Post 7-8 hours, cells were harvested. The co-culture media was filtered using 0.2 μm filters and used for ceramidastin experiment. Human keratinocytes were treated with conditioned media (25% v/v) of cells co-cultured with PAwt biofilm containing ceramidastin (10 μg/ml) for 24 h.
Western blot was performed using antibodies against anti-PPARδ (Thermo Scientific, 1:500), anti-CerS3 (Origene, 1:500). β-actin (Sigma Aldrich, 1:5000) was used as housekeeping.

ABCA12 = ABCA12 in human keratinocytes after PAwt biofilm infection; format: cell-based
Description: as §2, §1

CerS3 = CerS3 expression in human keratinocytes treated with PPARδ agonist or antagonist, qPCR; format: cell-based; details: 1 μmol/ml
Description: FIGS. 11A-11O illustrate additional experimental results. FIG. 11A: Vector map of PPARδ promoter luciferase reporter. FIGS. 11B-11C: PPARδ drives CerS3 expression. CerS3 expression in human keratinocytes (HK) treated with PPARδ agonist (GW501516, 1 μmol/ml) or antagonist (GSK0660, 1 μmol/ml) as measured by qPCR. Data presented as mean±SEM (n=5). FIGS. 11D-11F: Upregulation of DNA methyl transferases in S-1-P treated HK. Data presented as mean±SEM (n=8). FIGS. 11G-11J: Induction of histone deacetylases in S-1P treated HK. Data presented as mean±SEM (n=8). FIGS. 11K-11N) Other histone deacetylases in S-1P treated HK. […] Data presented as mean±SEM, (n=8). FIG. 11O: miR-106b expression in HK treated with S-1-P (5 μmol/ml). Data presented as mean±SEM (n=8).

S. aureus = details: cited from earlier work
Streptococcus pyogenes = details: cited from earlier work
Micrococcus luteus = details: cited from earlier work
Propionibacterium acnes = details: cited from earlier work
[3] = test system: Staphylococcus epidermidis; details: cited from earlier work
P. aeruginosa = details: cited from earlier work
[4] = test system: Staphylococcus epidermidis biofilm; details: cited from earlier work

T1 sequence (Q9I596 25-670): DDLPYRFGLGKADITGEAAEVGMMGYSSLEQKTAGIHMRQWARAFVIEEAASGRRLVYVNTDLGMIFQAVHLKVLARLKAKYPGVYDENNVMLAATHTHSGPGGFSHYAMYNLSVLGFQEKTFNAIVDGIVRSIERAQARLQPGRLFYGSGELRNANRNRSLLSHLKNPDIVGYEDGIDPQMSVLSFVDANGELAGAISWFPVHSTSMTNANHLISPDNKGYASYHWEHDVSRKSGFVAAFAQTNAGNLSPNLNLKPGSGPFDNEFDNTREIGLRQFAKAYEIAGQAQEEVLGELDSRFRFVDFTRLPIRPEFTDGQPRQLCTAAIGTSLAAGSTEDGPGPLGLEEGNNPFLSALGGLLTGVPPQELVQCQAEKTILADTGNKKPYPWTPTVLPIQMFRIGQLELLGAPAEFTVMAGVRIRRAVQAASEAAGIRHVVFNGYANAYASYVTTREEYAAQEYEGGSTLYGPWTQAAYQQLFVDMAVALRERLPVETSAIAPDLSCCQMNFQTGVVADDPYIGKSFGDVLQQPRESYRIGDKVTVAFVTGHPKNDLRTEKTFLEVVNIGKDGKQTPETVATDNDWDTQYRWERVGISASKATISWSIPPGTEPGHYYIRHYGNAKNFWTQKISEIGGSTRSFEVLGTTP

SMILES: CCCCCCCCCCCCC/C=C/[C@@H](O)[C@H](CO)NC(=O)CCCCCCCCCCCCCCCCC [C18]
- PPARδ transactivation (PPARδ [1]): induced
- PPARδ transcription (PPARδ promoter): induced

SMILES: CCCCCCCCCCCCC/C=C/[C@@H](O)[C@H](CO)NC(=O)CCCCCCCCCCCCCCCCCCCCCCC [C24]
- PPARδ transactivation (PPARδ [1]): induced
- PPARδ transcription (PPARδ promoter): induced

SMILES: CCCCCCC(O)C1C2=C(CC(C(O)C(O)C/C=C/CO)CC3=C(C(=O)OC3=O)C1O)C(=O)OC2=O (centres unmarked) [Ceramidastin]
- keratinocyte ceramide after PAwt biofilm infection (Human keratinocytes (HK)): rescued keratinocyte ceramide against loss; also recorded: rescued depletion of keratinocyte ceramide
- ceramides in extracted skin lipids treated with biofilm-conditioned media (PA bcdase): rescue of ceramides
- PPARδ expression blunted by biofilm infection (PPARδ [2]): rescued
- loss of ABCA12 in response to biofilm infection by PAwt (ABCA12): prevented

SMILES: COC(=O)c1sccc1S(=O)(=O)Nc1ccc(Nc2ccccc2)cc1OC [GSK0660]
- CerS3 expression (CerS3): blunted the expression of CerS3

SMILES: Cc1cc(SCc2sc(-c3ccc(C(F)(F)F)cc3)nc2C)ccc1OCC(=O)O [GW501516]
- CerS3 expression (CerS3): increased expression of CerS3

SMILES: CCCCCCCCCCCCC/C=C/[C@@H](O)[C@@H](N)CO [Sphingosine]
- killing of S. aureus (S. aureus): effectively killed
- killing of Streptococcus pyogenes (Streptococcus pyogenes): effectively killed
- killing of Micrococcus luteus (Micrococcus luteus): effectively killed
- killing of Propionibacterium acnes (Propionibacterium acnes): effectively killed
- killing of Staphylococcus epidermidis [3]: effectively killed
- killing of P. aeruginosa (P. aeruginosa): moderately killed
- Staphylococcus epidermidis biofilm on orthopedic implant materials [4]: prevented and eliminated
